Measurements from ChEMBL document CHEMBL1124909 (J Med Chem, 1990).

Legend:
Type in all cases: functional
Details in all cases: 720 h
Mus musculus [1] = assay: The percentage 30-day survival of the mice at 600 mg/kg dose, with the radiation dose of 10 GY.
Mus musculus [2] = assay: The percentage 30-day survival of the mice at 75 mg/kg dose, with the radiation dose of 10 Gy.
Mus musculus [3] = assay: The percentage 30-day survival of the mice at 150 mg/kg dose, with the radiation dose of 10 Gy.
Mus musculus [4] = assay: The percentage 30-day survival of the mice at 300 mg/kg dose, with the radiation dose of 10 GY.

SMILES: NCCCNCCSP(=O)(O)O [AMIFOSTINE]
- survival at 600 mg/kg (Mus musculus [1]): 100%
- survival at 75 mg/kg (Mus musculus [2]): 40%
- survival at 150 mg/kg (Mus musculus [3]): 40%
- survival at 300 mg/kg (Mus musculus [4]): 100%
